Source: patent US11213567B2, “ZAG-derived peptide and use thereof” (L&C Bio Co., LTD., priority 2017, dated 2022)

Columns and labels:
IL-6 = test: Atopic dermatitis efficacy test using macrophages (RAW 264.7): IL-6 released after LPS, ELISA; type: cell-based, mouse; set-up: key to RAW 264.7 (mouse) IL-6: •: have statistical significance, determining as effective, compared with the positive control; details: for RAW 264.7 (mouse) IL-6: 1 μg/mL for 24 hours, then LPS 0.1 μg/mL 24 hours; for IL-6 concentration released in cell culture medium: Example 2-1, FIG. 2A, RAW 264.7, 1 μg/mL 24 hours, LPS 0.1 μg/mL 24 hours, compared with positive control (Pos)
Method: (§1) To select an amino acid sequence corresponding to a key active site of ZAG having efficacy in the alleviation of atopic symptoms from 18 peptide candidate groups, an atopic dermatitis efficacy test was performed. Five types of immune-related cells were treated with ZAG peptide candidate groups (Z1-Z18, SEQ ID NOs: 1 to 18, respectively) and the ZAG protein (Z0, SEQ ID NOs: 19) at a concentration of 1 μg/mL for 24 hours, and then treated with a stimulator suitable for each cell line for the listed time to confirm an immune response. The experiment was performed with a group treated with only a stimulator as a positive control experimental group, and a group treated with only a vehicle without a stimulator as a negative control experimental group (Table 2: Efficacy test method for atopic dermatitis). An inflammatory response-related enzyme used as a stimulator is produced by immune cells, and histamine initiates an inflammatory response. The immune cells migrating to a damaged region release cytokines such as tumor necrosis factor-α (TNF-α) and interleukin-6 (IL-6) to directly lyse foreign invasive substances or collect other immune cells to initiate an inflammatory response. An efficacy test using inflammation-inducing materials, interferon-γ and skin inflammation-related factor CCL-17/thymus- and activation-regulated chemokine (TARC) was also performed to confirm an immune response.
Macrophages (RAW 264.7 cells) were treated with a stimulator LPS at a concentration of 0.1 μg/mL for 24 hours, and then the concentration of IL-6 released in a cell culture medium was confirmed by ELISA assay.
(§2) Various types of immune cells were treated with each of Z20mer-1, Z20mer-2, Z20mer-3, Z15mer-1, Z15mer-2, Z15mer-3 and Z15mer-4 at a concentration of 1 μg/mL for 24 hours, and then treated with a stimulator suitable for each cell line for the listed time to confirm an immune response. The atopic dermatitis efficacy test method was performed by the same method as described in Example 1 and Table 2.
(§3) The experiment was performed with experimental groups: 1) negative control: vehicle-treated group (Neg), 2) positive control: a group treated with only a stimulator (Pos), and 3) experimental group: groups treated with a stimulator and ZAG3 or a ZAG3-derived oligopeptide (Z20mer-1, Z20mer-2, Z20mer-3, Z15mer-1, Z15mer-2, Z15mer-3 or Z15mer-4). Concentrations were measured from cell culture by ELISA.
Macrophages (RAW 264.7 cells) were treated with a stimulator LPS at a concentration of 0.1 μg/mL for 24 hours, and then a concentration of IL-6 released in a cell culture medium was confirmed by ELISA assay.

Histamine = test: Atopic dermatitis efficacy test using mast cells (RBL-2H3): histamine released after PMA and A23187, ELISA; type: cell-based, rat; set-up: key: •: have statistical significance, determining as effective, compared with the positive control; details: 1 μg/mL for 24 hours, then PMA 1 μg/mL, A23187 1 μg/mL 12 hours
Method: as §1
Mast cells (RBL-2H3) were treated with 1 μg/mL of PMA and 1 μg/mL of A23187 as stimulators for 12 hours, and a concentration of histamine released in a cell culture medium was confirmed by ELISA assay.
as §2, §3
Mast cells (RBL-2H3) were treated with 1 μg/mL of PMA and 1 μg/mL of A23187 as simulators for 12 hours, and then a concentration of histamine released in a cell culture medium was confirmed by ELISA assay. As compared with the positive control (Pos), in all of the oligopeptide-treated groups, the histamine release was reduced (FIG. 2B).

CCL17/TARC = test: Atopic dermatitis efficacy test using keratinocytes (HaCaT): CCL17/TARC released after TNF-α and IFN-γ, ELISA; type: cell-based, human; set-up: key to HaCaT (human) CCL17/TARC: •: have statistical significance, determining as effective, compared with the positive control; details: for HaCaT (human) CCL17/TARC: 1 μg/mL for 24 hours, then TNF-α 0.4 μg/mL, IFN-γ 0.4 μg/mL 24 hours
Method: as §1
Keratinocytes (HaCaT cells) were treated with 0.4 μg/mL of TNF-α and 0.4 μg/mL of IFN-γ as stimulators for 24 hours, and then a concentration of CCL17/TARC released in a cell culture medium was confirmed by ELISA assay.
as §2, §3

IgE = test: Atopic dermatitis efficacy test using B lymphocytes (RPMI 1788): IgE released after LPS, ELISA; type: cell-based, human; set-up: key: •: have statistical significance, determining as effective, compared with the positive control; details: then LPS 0.1 μg/mL 24 hours
Method: as §1
(§4) B lymphocytes (RPMI 1788) were treated with 0.1 μg/mL of LPS as a stimulator for 24 hours, and a concentration of IgE released in a cell culture medium was confirmed by ELISA assay.
as §2, §3
as §4, with “and then” for “and”, “assay. As compared with the positive control (Pos), in all of the oligopeptide-treated groups, IgE was reduced (FIG. 2D).” for “assay.”

IL-4 = test: Atopic dermatitis efficacy test using T lymphocytes: IL-4 released after IL-2, ELISA; type: cell-based, human; set-up: key to T lymphocyte (human) IL-4: •: have statistical significance, determining as effective, compared with the positive control; details: for IL-4 concentration released in cell culture medium: Example 1-5, FIG. 1E, IL-2 50 ng/mL 12 hours; for IL-4 concentration released in cell culture medium / IL-4: T lymphocytes, 1 μg/mL 24 hours; for T lymphocyte (human) IL-4: 1 μg/mL for 24 hours, then IL-2 50 ng/mL 12 hours; for IL-4: Example 2-5, FIG. 2E, compared with positive control (Pos)
Method: as §1
An atopic dermatitis efficacy test using T lymphocytes was performed with six peptide candidate groups (Z3, Z4, Z5, Z12, Z14, and Z15), which were determined to have efficacy from the results of Examples 1-1 to 1-4 described above. T lymphocytes were treated with 50 ng/mL of IL-2 as a stimulator for 12 hours, and a concentration of IL-4 released in a cell culture medium was confirmed by ELISA assay.
as §2, §3
An experiment was performed on T lymphocytes using the target peptides selected through the previous experiment. As compared with the positive control (Pos), in all of the oligopeptide-treated groups (Z20mer-1, Z20mer-2, Z20mer-3, Z15mer-1, Z15mer-2, Z15mer-3, and Z15mer-4), IL-4 was reduced (FIG. 2E).

[1] = Table 3, 1 μg/mL for 24 hours, vs stimulator only
[2] = Table 5, 1 μg/mL for 24 hours, vs positive control

Row | Substance | RAW 264.7 (mouse) IL-6 (IL-6; Table 3, vs stimulator only) | RBL-2H3 (rat) Histamine (Histamine; Table 3, vs stimulator only) | HaCaT (human) CCL17/TARC (CCL17/TARC; Table 3, vs stimulator only) | B lymphocyte (human) IgE (IgE; [1]) | also measured
1 | Z1: ZAG protein-derived peptide, SEQ ID NO. 1: QENQDGRYSLTYIYTGLSKHVEDVPAFQAL (ZAG protein-derived peptide) | • | • | • |  | 
2 | Z2: ZAG protein-derived peptide, SEQ ID NO. 2: GSLNDLQFFRYNSKDRKSQPMGLWRQVEGM (ZAG protein-derived peptide) | • | • | • |  | 
3 | Z6: ZAG protein-derived peptide, SEQ ID NO. 6: EPVYVQRAKAYLEEECPATLRKYLKYSKNI (ZAG protein-derived peptide) | • | • | • | • | 
4 | Z7: ZAG protein-derived peptide, SEQ ID NO. 7: LDRQDPPSVVVTSHQAPGEKKKLKCLAYDF (ZAG protein-derived peptide) | • | • | • | • | 
5 | Z8: ZAG protein-derived peptide, SEQ ID NO. 8: YPGKIDVHWTRAGEVQEPELRGDVLHNGNG (ZAG protein-derived peptide) | • | • | • | • | 
6 | Z9: ZAG protein-derived peptide, SEQ ID NO. 9: TYQSWVVVAVPPQDTAPYSCHVQHSSLAQP (listed as Homo sapiens) | • | • |  |  | 
7 | Z10: ZAG protein-derived peptide, SEQ ID NO. 10: GLSKHVEDVPAFQALGSLNDLQFFRYNSKD (ZAG protein-derived peptide) | • | • | • |  | 
8 | Z11: ZAG protein-derived peptide, SEQ ID NO. 11: RKSQPMGLWRQVEGMEDWKQDSQLQKARED (ZAG protein-derived peptide) |  | • |  |  | 
9 | Z12: ZAG protein-derived peptide, SEQ ID NO. 12: PFDPAAQITKQKWEAEPVYVQRAKAYLEEE (ZAG protein-derived peptide) |  |  | • | • | IL-4 concentration released in cell culture medium (IL-4): significantly decreased; T lymphocyte (human) IL-4 (IL-4; Table 3, vs stimulator only): •
10 | Z13: ZAG protein-derived peptide, SEQ ID NO. 13: CPATLRKYLKYSKNILDRQDPPSVVVTSHQ (ZAG protein-derived peptide) |  |  | • | • | 
11 | Z15: ZAG protein-derived peptide, SEQ ID NO. 15: ENNRSSGAFWKYYYDGKDYIEFNKEIPAWV (listed as Homo sapiens) |  | • |  |  | IL-4 concentration released in cell culture medium (IL-4): significantly decreased
12 | Z15mer-1: ZAG3-derived oligopeptide, SEQ ID NO. 23: EDWKQDSQLQKARED (ZAG protein-derived peptide) |  |  |  |  | IL-6 concentration released in cell culture medium (IL-6): significantly decreased; RAW 264.7 (mouse) IL-6 (IL-6; Table 5, vs positive control): •; IL-4 (IL-4): reduced; T lymphocyte (human) IL-4 (IL-4; Table 5, vs positive control): •; RBL-2H3 (rat) Histamine (Histamine; Table 5, vs positive control): •; B lymphocyte (human) IgE (IgE; [2]): •
13 | Z15mer-2: ZAG3-derived oligopeptide, SEQ ID NO. 24: DSQLQKAREDIFMET (ZAG protein-derived peptide) |  |  |  |  | IL-6 concentration released in cell culture medium (IL-6): significantly decreased; RAW 264.7 (mouse) IL-6 (IL-6; Table 5, vs positive control): •; IL-4 (IL-4): reduced; T lymphocyte (human) IL-4 (IL-4; Table 5, vs positive control): •; RBL-2H3 (rat) Histamine (Histamine; Table 5, vs positive control): •; B lymphocyte (human) IgE (IgE; [2]): •
14 | Z16: ZAG protein-derived peptide, SEQ ID NO. 16: APGEKKKLKCLAYDFYPGKIDVHWTRAGEV (ZAG protein-derived peptide) |  |  |  | • | T lymphocyte (human) IL-4 (IL-4; Table 3, vs stimulator only): •
15 | Z17: ZAG protein-derived peptide, SEQ ID NO. 17: QEPELRGDVLHNGNGTYQSWVVVAVPPQDT (ZAG protein-derived peptide) |  | • |  | • | 
16 | Z18: ZAG protein-derived peptide, SEQ ID NO. 18: AVPPQDTAPYSCHVQHSSLAQPLVVPWEAS (ZAG protein-derived peptide) |  | • | • | • | 
17 | Z20mer-1: ZAG3-derived oligopeptide, SEQ ID NO. 20: EDWKQDSQLQKAREDIFMET (ZAG protein-derived peptide) |  |  |  |  | IL-4 (IL-4): reduced; T lymphocyte (human) IL-4 (IL-4; Table 5, vs positive control): •; RBL-2H3 (rat) Histamine (Histamine; Table 5, vs positive control): •; CCL17/TARC concentration released in cell culture medium (CCL17/TARC; Example 2-3, FIG. 2C, HaCaT, 1 μg/mL 24 hours, TNF-α 0.4 μg/mL and IFN-γ 0.4 μg/mL 24 hours, compared with positive control (Pos)): significantly decreased; HaCaT (human) CCL17/TARC (CCL17/TARC; Table 5, vs positive control): •; B lymphocyte (human) IgE (IgE; [2]): •
18 | Z20mer-2: ZAG3-derived oligopeptide, SEQ ID NO. 21: DSQLQKAREDIFMETLKDIV (ZAG protein-derived peptide) |  |  |  |  | IL-4 (IL-4): reduced; T lymphocyte (human) IL-4 (IL-4; Table 5, vs positive control): •; RBL-2H3 (rat) Histamine (Histamine; Table 5, vs positive control): •; B lymphocyte (human) IgE (IgE; [2]): •
19 | Z20mer-3: ZAG3-derived oligopeptide, SEQ ID NO. 22: KAREDIFMETLKDIVEYYND (ZAG protein-derived peptide) |  |  |  |  | IL-6 concentration released in cell culture medium (IL-6): significantly decreased; RAW 264.7 (mouse) IL-6 (IL-6; Table 5, vs positive control): •; IL-4 (IL-4): reduced; T lymphocyte (human) IL-4 (IL-4; Table 5, vs positive control): •; RBL-2H3 (rat) Histamine (Histamine; Table 5, vs positive control): •; B lymphocyte (human) IgE (IgE; [2]): •
